Measurements: US20120009674A1, “Use of a GSK-3 Inhibitor to Maintain Potency of Cultured Cells” (ABT Holding Company, priority 2005, published 2012)

How the values were obtained:
CDK2-cyclin A = CDK2-cyclin A (Homo sapiens, UniProt P24941); settings: at 10 μM; cited from earlier work
[1] = system: human embryonic stem (ES) cell; settings: human ES cells; Oct-3a, Rex-1 and Nanog expression; cited from earlier work
[2] = system: mouse embryonic stem (ES) cell; settings: mouse ES cells; Oct-3a, Rex-1 and Nanog expression; cited from earlier work
Oct-3A = experiment: Western blot of Oct-3A protein in BIO treated MAPCs; assay type: cell-based, human; settings: BIO treated vs untreated MAPCs from the same donor, FIG. 3
[3] = Stability of BIO in culture, expansion media without cells (mass spectroscopy); assay type: physicochemical; settings: absence of cells, 72-hour period, 1 μM BIO, 37° C., 18% O2, 5% CO2, expansion media
[4] = system: mouse mesodermal stem cell line; settings: Chen, S., et al. (2003); cited from earlier work

SMILES: CCCC(=O)Nc1n[nH]c2ncc(-c3ccccc3F)cc12 [Pyrazolopyridine 18]
- Inhibits CDK2-cyclin A (CDK2-cyclin A): A (95% at 10 μM)

SMILES: CN(C)CCC(=O)Nc1n[nH]c2nnc(-c3ccccc3)cc12 [Pyrazolopyridine 9]
- Inhibits CDK2-cyclin A (CDK2-cyclin A): A (90% at 10 μM)

SMILES: O=C1Nc2cc(Br)ccc2/C1=C1/Nc2ccccc2/C1=N\O [BIO, 6-bromoindirubin-3′-oxime]
- maintenance of ES cultures in an undifferentiated pluripotent state [1]: able to substitute for the addition of feeder cultures or addition of exogenous cytokines in maintaining the ES cultures in an undifferentiated pluripotent state
- maintenance of ES cultures in an undifferentiated pluripotent state [2]: able to substitute for the addition of feeder cultures or addition of exogenous cytokines in maintaining the ES cultures in an undifferentiated pluripotent state
- Oct-3A protein level (Western blot) (Oct-3A): increases or protects the amount of detectable Oct-3A
- BIO stable (native BIO remaining) [3]: approximately 95%

SMILES: c1nc2nc(Nc3ccc(N4CCOCC4)cc3)nc(NC3CCCCC3)c2[nH]1 [reversine]
- de-differentiation of committed myoblast [4]: acted to “de-differentiate” the cell line from a committed myoblast, back to the multipotent precursor
